Test results from ChEMBL document CHEMBL5154755, “Discovery of Novel Indazoles as Potent and Selective PI3Kδ Inhibitors with High Efficacy for Treatment of Hepatocellular Carcinoma” (J Med Chem, 2022).

Tests used:
Hep 3B2 [1] = experiment: cells; conditions: Homo sapiens, Hep3B, 72 h, read-out: INH
HepG2 [2] = experiment: cells; conditions: Homo sapiens, HepG2, 72 h, read-out: INH
HepG2 [3] = experiment: cells; conditions: Homo sapiens, HepG2, 72 h
Description: Antiproliferative activity against human HepG2 cells assessed as inhibition of cell growth incubated for 72 hrs by SRB assay

Hep 3B2 [4] = experiment: Antiproliferative activity against human Hep3B cells assessed as inhibition of cell growth incubated for 72 hrs by SRB assay; type: functional, cell-based
[5] = target: T1, Phosphatidylinositol 4,5-bisphosphate 3-kinase catalytic subunit delta isoform (Homo sapiens, UniProt O00329); experiment: Inhibition of PI3Kdelta (unknown origin) using PIP2 as substrate incubated for 1 hr in presence of ATP by ADP-Glo assay
T1 sequence (O00329 whole entry): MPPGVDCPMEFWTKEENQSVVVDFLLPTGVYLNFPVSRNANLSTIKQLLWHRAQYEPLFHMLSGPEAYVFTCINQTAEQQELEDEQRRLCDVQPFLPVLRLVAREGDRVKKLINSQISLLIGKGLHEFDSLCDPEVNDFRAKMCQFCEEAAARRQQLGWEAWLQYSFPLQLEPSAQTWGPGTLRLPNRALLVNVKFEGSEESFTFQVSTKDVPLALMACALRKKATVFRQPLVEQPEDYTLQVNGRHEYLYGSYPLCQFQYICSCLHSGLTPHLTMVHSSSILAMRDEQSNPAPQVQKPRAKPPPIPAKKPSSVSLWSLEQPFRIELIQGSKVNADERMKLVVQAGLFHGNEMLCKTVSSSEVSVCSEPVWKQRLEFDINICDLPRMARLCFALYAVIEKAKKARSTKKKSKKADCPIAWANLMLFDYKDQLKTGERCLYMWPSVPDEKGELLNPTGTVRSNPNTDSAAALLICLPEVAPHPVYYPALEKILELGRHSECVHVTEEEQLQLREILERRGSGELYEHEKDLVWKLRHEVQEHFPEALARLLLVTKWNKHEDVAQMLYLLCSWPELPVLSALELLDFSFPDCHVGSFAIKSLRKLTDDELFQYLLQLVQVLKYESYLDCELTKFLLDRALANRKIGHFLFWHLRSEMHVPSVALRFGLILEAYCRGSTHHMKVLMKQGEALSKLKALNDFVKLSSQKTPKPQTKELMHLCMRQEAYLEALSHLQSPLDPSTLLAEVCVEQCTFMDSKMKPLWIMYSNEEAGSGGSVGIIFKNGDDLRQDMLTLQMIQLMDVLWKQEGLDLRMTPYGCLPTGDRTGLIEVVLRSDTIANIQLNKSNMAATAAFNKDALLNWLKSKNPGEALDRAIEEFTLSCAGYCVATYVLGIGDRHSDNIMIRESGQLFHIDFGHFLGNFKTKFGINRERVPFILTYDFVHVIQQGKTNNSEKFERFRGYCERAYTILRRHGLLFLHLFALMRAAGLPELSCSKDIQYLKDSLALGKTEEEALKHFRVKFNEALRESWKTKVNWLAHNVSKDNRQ

Bel-7402 [6] = experiment: cells; conditions: Homo sapiens, Bel-7402, 72 h, read-out: INH
Bel-7402 [7] = experiment: Antiproliferative activity against human Bel-7402 cells assessed as inhibition of cell growth incubated for 72 hrs by SRB assay; type: functional, cell-based; conditions: Bel-7402, 72 h
[8] = target: Phosphatidylinositol 4,5-bisphosphate 3-kinase catalytic subunit beta isoform (Homo sapiens, UniProt P42338); experiment: Inhibition of PI3Kbeta (unknown origin) using PIP2 as substrate incubated for 1 hr in presence of ATP by ADP-Glo assay
Chain of Phosphatidylinositol 4,5-bisphosphate 3-kinase catalytic subunit beta isoform (P42338 whole entry, canonical isoform): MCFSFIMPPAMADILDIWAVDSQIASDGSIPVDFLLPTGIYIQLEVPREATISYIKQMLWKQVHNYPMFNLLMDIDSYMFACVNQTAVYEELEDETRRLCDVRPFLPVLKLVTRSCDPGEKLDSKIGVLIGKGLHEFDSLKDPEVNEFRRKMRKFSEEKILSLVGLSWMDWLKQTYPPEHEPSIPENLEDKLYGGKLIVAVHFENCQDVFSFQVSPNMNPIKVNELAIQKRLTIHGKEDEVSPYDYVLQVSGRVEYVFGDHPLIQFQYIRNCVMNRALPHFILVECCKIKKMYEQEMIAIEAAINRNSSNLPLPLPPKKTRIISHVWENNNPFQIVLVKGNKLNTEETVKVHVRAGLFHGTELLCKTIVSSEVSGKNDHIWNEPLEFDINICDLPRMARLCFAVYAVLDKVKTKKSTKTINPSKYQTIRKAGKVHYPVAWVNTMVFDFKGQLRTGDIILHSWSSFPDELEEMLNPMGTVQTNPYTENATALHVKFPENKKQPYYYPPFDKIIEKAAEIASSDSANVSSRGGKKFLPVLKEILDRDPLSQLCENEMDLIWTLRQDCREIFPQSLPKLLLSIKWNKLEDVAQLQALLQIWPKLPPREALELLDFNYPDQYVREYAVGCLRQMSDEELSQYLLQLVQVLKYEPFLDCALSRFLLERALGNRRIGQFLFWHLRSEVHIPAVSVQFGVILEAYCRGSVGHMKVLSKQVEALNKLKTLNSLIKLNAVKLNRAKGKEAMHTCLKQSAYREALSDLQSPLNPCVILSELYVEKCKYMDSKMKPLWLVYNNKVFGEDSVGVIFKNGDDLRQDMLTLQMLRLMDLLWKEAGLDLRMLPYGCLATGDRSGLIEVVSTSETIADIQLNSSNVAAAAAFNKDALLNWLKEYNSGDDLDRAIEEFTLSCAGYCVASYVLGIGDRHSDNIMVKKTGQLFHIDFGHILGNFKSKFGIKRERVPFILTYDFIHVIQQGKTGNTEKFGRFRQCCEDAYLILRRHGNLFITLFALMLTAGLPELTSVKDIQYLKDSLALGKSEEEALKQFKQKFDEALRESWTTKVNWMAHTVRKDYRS

[9] = target: Phosphatidylinositol 4,5-bisphosphate 3-kinase catalytic subunit alpha isoform (Homo sapiens, UniProt P42336); experiment: Inhibition of PI3Kalpha (unknown origin) using PIP2 as substrate incubated for 1 hr in presence of ATP by ADP-Glo assay
Chain of Phosphatidylinositol 4,5-bisphosphate 3-kinase catalytic subunit alpha isoform (P42336 whole entry, canonical isoform): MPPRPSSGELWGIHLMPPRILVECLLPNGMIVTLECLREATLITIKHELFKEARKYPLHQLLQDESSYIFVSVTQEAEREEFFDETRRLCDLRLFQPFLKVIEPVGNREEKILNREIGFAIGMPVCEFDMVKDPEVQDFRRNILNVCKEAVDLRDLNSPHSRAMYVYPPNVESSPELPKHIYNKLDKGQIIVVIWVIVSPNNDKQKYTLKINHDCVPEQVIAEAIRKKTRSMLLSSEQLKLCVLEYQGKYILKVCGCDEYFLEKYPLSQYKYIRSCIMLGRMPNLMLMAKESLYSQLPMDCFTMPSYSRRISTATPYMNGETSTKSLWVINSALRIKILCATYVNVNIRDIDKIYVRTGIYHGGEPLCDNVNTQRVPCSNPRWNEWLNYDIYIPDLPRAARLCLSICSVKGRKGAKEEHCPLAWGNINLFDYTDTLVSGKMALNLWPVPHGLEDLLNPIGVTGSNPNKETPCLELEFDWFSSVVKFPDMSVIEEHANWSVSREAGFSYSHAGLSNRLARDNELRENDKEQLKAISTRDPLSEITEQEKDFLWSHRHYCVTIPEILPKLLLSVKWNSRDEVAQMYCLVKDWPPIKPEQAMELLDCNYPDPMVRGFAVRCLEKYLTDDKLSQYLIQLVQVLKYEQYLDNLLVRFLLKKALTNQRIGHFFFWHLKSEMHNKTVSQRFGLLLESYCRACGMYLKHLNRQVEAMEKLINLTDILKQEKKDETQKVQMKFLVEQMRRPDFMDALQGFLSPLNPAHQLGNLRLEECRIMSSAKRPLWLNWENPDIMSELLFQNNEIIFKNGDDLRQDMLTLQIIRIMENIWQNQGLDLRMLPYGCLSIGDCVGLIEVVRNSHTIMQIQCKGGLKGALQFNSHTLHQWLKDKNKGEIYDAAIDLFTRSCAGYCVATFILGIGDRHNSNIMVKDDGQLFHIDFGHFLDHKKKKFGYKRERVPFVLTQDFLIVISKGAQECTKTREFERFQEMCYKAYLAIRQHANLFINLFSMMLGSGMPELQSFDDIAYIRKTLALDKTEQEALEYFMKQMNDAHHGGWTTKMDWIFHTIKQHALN

[10] = target: Phosphatidylinositol 4,5-bisphosphate 3-kinase catalytic subunit gamma isoform (Homo sapiens, UniProt P48736); experiment: Inhibition of PI3Kgamma (unknown origin) using PIP2 as substrate incubated for 1 hr in presence of ATP by ADP-Glo assay
Chain of Phosphatidylinositol 4,5-bisphosphate 3-kinase catalytic subunit gamma isoform (P48736 whole entry, canonical isoform): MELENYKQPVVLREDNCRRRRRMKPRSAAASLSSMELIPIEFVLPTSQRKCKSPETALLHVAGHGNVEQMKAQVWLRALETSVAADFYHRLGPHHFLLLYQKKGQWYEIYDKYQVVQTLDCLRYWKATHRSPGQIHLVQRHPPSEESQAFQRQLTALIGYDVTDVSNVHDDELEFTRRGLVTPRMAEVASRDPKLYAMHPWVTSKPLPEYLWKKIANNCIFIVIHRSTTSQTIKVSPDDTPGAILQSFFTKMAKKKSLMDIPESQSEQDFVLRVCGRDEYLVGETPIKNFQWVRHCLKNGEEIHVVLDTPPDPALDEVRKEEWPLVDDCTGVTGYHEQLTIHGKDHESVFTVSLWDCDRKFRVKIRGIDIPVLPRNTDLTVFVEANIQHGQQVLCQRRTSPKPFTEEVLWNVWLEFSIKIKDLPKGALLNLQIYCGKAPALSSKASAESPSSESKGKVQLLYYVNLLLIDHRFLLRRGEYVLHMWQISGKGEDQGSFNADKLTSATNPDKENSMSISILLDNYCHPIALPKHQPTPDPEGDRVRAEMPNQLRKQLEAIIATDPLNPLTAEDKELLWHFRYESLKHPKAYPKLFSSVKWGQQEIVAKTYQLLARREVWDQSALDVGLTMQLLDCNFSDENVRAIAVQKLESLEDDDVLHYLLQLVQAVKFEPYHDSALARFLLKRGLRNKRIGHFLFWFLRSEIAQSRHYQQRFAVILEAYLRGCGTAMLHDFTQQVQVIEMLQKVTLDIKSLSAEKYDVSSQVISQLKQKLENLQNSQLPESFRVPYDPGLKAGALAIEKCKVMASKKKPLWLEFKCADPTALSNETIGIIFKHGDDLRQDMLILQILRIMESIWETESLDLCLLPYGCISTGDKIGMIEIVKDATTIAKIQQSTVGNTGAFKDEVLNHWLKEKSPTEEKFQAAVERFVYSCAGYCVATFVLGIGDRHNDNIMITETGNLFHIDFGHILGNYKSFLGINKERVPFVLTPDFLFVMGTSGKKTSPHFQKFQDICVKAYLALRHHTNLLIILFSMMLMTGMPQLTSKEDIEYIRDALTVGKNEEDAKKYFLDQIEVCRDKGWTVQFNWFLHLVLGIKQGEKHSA

Row | Structure (SMILES) | inhibition at 10 µM (Hep 3B2 [1]) [%] | inhibition at 10 µM (HepG2 [2]) [%] | IC50 (HepG2 [3]) [µM] | IC50 (Hep 3B2 [4]) [µM] | IC50 [5] [µM] | inhibition at 10 µM (Bel-7402 [6]) [%] | IC50 (Bel-7402 [7]) [µM] | IC50 [8] [µM] | IC50 [9] [µM] | IC50 [10] [µM]
1 | C[C@H](Nc1ncnc2[nH]cnc12)c1nn(-c2cccc(S(C)(=O)=O)c2)c2cc(F)ccc12 | 11 | 23 | 14.8 | 13 | 0.0123 | -16 | 20 |  |  | 
2 | CC(Nc1ncnc2[nH]cnc12)c1nn(-c2cccnc2)c2ccccc12 (racemic) | 9 | 13 | 26.2 | 40.3 | 0.392 | 4 | 16.1 |  |  | 
3 | CC[C@H](Nc1nc(N)nc(N)c1C#N)c1nn(-c2cccnc2)c2cc(Cl)ccc12 | 56 | 59 | 4.77 | 12.1 | 0.0012 | 56 | 5.59 | 0.031 | 0.576 | > 1
4 | C[C@H](Nc1ncnc2[nH]cnc12)c1nn(-c2cccnc2)c2ccc(F)cc12 | 13 | 8 | 41.9 | 40.1 | 0.101 | -22 | 31.9 |  |  | 
5 | C[C@H](Nc1nc(N)nc(N)c1C#N)c1nn(-c2ccncc2)c2cc(F)ccc12 | 50 | 84 | 7.48 | 11.6 | 0.0057 | 43 | 8.31 |  |  | 
6 | C[C@H](Nc1ncnc2[nH]cnc12)c1nn(-c2cc(F)cc(F)c2)c2cc(F)ccc12 | 14 | 30 | 22.1 | > 40 | 0.423 | -8 | > 40 |  |  | 
7 | C[C@H](Nc1ncnc(N)c1C#N)c1nn(-c2cccnc2)c2cc(F)ccc12 | 30 | 56 | 25.4 | 19.2 | 0.021 | -4 | 37.4 |  |  | 
8 | C[C@H](Nc1ncnc2[nH]cnc12)c1nn(-c2cccnc2)c2ccccc12 | 21 | 62 | 20.6 | 36.6 | 0.038 | 40 | 11.2 |  |  | 
9 | C[C@H](Nc1ncccc1C#N)c1nn(-c2cccnc2)c2cc(F)ccc12 | 10 | 24 | > 40 | > 40 | > 10 | 11 | > 40 |  |  | 
10 | C[C@H](Nc1ncnc2[nH]cnc12)c1nn(-c2cccnc2)c2cc(Cl)ccc12 | 13 | 13 | > 40 | > 40 | 0.0077 | 17 | > 40 |  |  | 
11 | C[C@H](Nc1nc(N)nc(N)c1C#N)c1nn(-c2cccc(S(C)(=O)=O)c2)c2cc(F)ccc12 | 36 | 24 | 19.1 | 19.7 | 0.0026 | 14 | 22.1 |  |  | 
12 | C[C@H](Nc1ncnc2[nH]cnc12)c1nn(-c2ccccn2)c2cc(F)ccc12 | 12 | 22 | 29.9 | > 40 | 2.28 | 7 | > 40 |  |  | 
13 | Cc1ccc2c(c1)c([C@H](C)Nc1ncnc3[nH]cnc13)nn2-c1cccnc1 | 8 | 18 | > 40 | > 40 | 0.274 | -10 | > 40 |  |  | 
14 | C[C@H](Nc1ncnc2[nH]cnc12)c1nn(-c2cccc(F)c2)c2cc(F)ccc12 | 28 | 33 | 32.3 | > 40 | 0.485 | -17 | > 40 |  |  | 
15 | CC[C@H](Nc1nc(N)nc(N)c1C#N)c1nn(-c2cccnc2)c2cc(F)ccc12 | 32 | 28 | > 40 | 37.5 | 0.0021 | 29 | > 40 |  |  | 
16 | C[C@H](Nc1nc(N)nc(N)c1C#N)c1nn(-c2cccnc2)c2cc(F)ccc12 | 30 | 29 | 23.2 | 23.8 | 0.0037 | 15 | 29.8 |  |  | 
17 | CC(C)[C@H](Nc1ncnc2[nH]cnc12)c1nn(-c2cccnc2)c2cc(F)ccc12 | 4 | 16 | > 40 | > 40 | 0.072 | 5 | > 40 |  |  | 
18 | C[C@H](Nc1nc(N)nc(N)c1C#N)c1nn(-c2cccnc2)c2ccccc12 | 20 | 10 | 32.5 | 26.5 | 0.004 | 12 | 34.6 |  |  | 
19 | C[C@H](Nc1ncnc2[nH]cnc12)c1nn(-c2ccncc2)c2cc(F)ccc12 | 5 | 47 | 23.1 | 21.4 | 0.052 | 16 | > 40 |  |  | 
20 | C[C@H](Nc1ncnc2[nH]cnc12)c1nn(-c2cccnc2)c2cc(F)ccc12 | 20 | 23 | 37.5 | 34.5 | 0.038 | 8 | > 40 |  |  | 
21 | C[C@H](Nc1nc(N)nc2[nH]cnc12)c1nn(-c2cccnc2)c2cc(F)ccc12 | 14 | 11 | > 40 | > 40 | 0.039 | -5 | > 40 |  |  | 
22 | CC[C@H](Nc1ncnc2[nH]cnc12)c1nn(-c2cccnc2)c2cc(F)ccc12 | 4 | 26 | 33.9 | > 40 | 0.059 | 12 | 29 |  |  | 
23 | C[C@H](Nc1ncnc2[nH]cnc12)c1nn(-c2ccc(C#N)cc2)c2cc(F)ccc12 | 46 | 57 | 15.1 | 13.5 | 0.22 | 0 | 31.5 |  |  | 
24 | C[C@H](Nc1nc(N)nc(N)c1C#N)c1nn(-c2cccnc2)c2cc(C(F)(F)F)ccc12 | 69 | 36 | 1.68 | 9.71 | 0.286 | 60 | 3.19 |  |  | 
25 | C[C@H](Nc1nc(N)nc(N)c1C#N)c1nn(-c2cccc(S(C)(=O)=O)c2)c2cc(Cl)ccc12 | 72 | 56 | 1.88 | 5.11 | 0.0021 | 47 | 4.46 | 0.047 | > 1 | > 1
